In US10220069B2, “Compositions and methods for treating diabetes” (THE JOHNS HOPKINS UNIVERSITY, priority 2014, dated 2019):
One block for each substance: values may come before it. Where no end group is shown, it is not given here.

Tests used:
Kiss1 [1] = assay: Kiss1 expression in primary mouse hepatocytes; format: cell-based; conditions: for Kiss1 expression / Pck1 expression: primary mouse hepatocytes, glucagon 200 pg/ml, insulin 2000 pg/ml; for Kiss1 expression: 2 hr
Experimental: Cell Culture Studies. Mouse primary hepatocytes were isolated and cultured as described (He et al., 2009). H2.35 hepatoma cell line was cultured and transfected as described (He et al., 2009). 1 kb of the 5' untranslated region of the mouse Kiss1 gene were cloned by PCR into pGL4. The CRE half sites (TGCAT) within the promoter region were mutated by site directed mutagenesis to (TATGT). Luciferase activity was measured in cell lysates using a luminometer (Berthold) after treatment each for 2 hours with forskolin/IBMX (100 μM each) or glucagon (200 pg/ml) or/and insulin (2000 pg/ml). Dominant-negative A-CREB (Ahn et al., 1998) and WT CREB were from Addgene. Constitutively active CREB […] (Du et al., 2000) was generated by site directed mutagenesis of WT CREB. Glucagon Stimulates Hepatic Kiss1 Expression Via Gcgr and cAMP-PKA-CREB Signaling. We next examined whether glucagon directly stimulates hepatic kisspeptin1 production. Glucagon treatment (200 pg/ml) of primary mouse hepatocytes stimulated within 2 hr Kiss1 expression and protein (FIGS. 2A-2C).

mouse Kiss1 promoter = assay: Kiss1 promoter luciferase reporter in H2.35 hepatoma cells; format: cell-based; conditions: 1 kb mouse Kiss1 promoter
Experimental: Cell Culture Studies. Mouse primary hepatocytes were isolated and cultured as described (He et al., 2009). H2.35 hepatoma cell line was cultured and transfected as described (He et al., 2009). 1 kb of the 5' untranslated region of the mouse Kiss1 gene were cloned by PCR into pGL4. The CRE half sites ([…]) within the promoter region were mutated by site directed mutagenesis to (TATGT). Luciferase activity was measured in cell lysates using a luminometer (Berthold) after treatment each for 2 hours with forskolin/IBMX (100 μM each) or glucagon (200 pg/ml) or/and insulin (2000 pg/ml). Dominant-negative A-CREB (Ahn et al., 1998) and WT CREB were from Addgene. Constitutively active CREB […] (Du et al., 2000) was generated by site directed mutagenesis of WT CREB. […] The mouse Kiss1 promoter contains two putative functional cAMP response element (CRE) half-sites (TGACT) (Zhang et al., 2005) located at _127 and _758 bp upstream of the Kiss1 transcription start site. Mutation of either of the CRE half-sites decreased the transcriptional responses to glucagon or to fsk/IBMX, and combined mutation of both CRE half-sites further decreased the responses (FIG. 9A).

Gcgr [2] = biological target: T1, Gcgr (Mus musculus, UniProt Q61606); assay: Intraperitoneal glucagon: hepatic kisspeptin1 production; format: in vivo
T1 construct: endogenous in cells; host or cells: live mice (WT, Gcgrfl/fl, HFD-fed C57Bl/6, Lepr db/db); hepatic receptor
Experimental: (§1) Intraperitoneal glucose tolerance (ipGTT) and insulin tolerance (ipITT) tests were performed according to standard protocols (Song et al., 2013; Song et al., 2011). After 9 am-3 pm fasting, animals were administered 20% D-glucose (via ip injection), insulin 0.5 U/kg i.p. […] The glucagon receptor antagonist GAI (N-(3-Cyano-6-(1,1-dimethylpropyl)-4,5,6,7-tetrahydro-1-benzothien-2-yl)-2-ethylbutanamide (Qureshi et al., 2004) and its non-active analogue were administered (50 mg/kg i.p. in DMSO) in HFD fed and Lepr^db/db mice 60 min before i. GTT. Intraperitoneal pyruvate converstion (1 g/kg i.p.) test (ipPCT) in ΔL-Prkar1a mice was performed in the fed state (9 am) to avoid any confounding effects of fasting-induced elevated endogenous glucagon levels. Tail-vein blood was collected at the indicated times in figures for glucose and insulin measurements. Serum insulin was measured using mouse magnetic bead panel (Millipore, Luminex). Plasma for glucagon measurements was drawn from mice in the fed state at 9 am, unless otherwise noted for fasting studies. Plasma glucagon (Alpco) and kisspeptin1 (USCN Life Sciences Inc. E92559Ra) were measured by ELISA according to manufacturer's instructions including dilution of samples.
(§2) Kiss1 transcript was also detectable by qRT-PCR at low levels in spleen, kidney, skeletal muscle, and epididymal fat tissue.

Gcgr [3] = assay: as above; format: in vivo, mouse; conditions: mice lacking liver Gcgr, ip glucagon
Experimental: as §1, §2

Kiss1 [4] = assay: ip insulin in L-Δprkar1a mice: hepatic Kiss1; format: in vivo, mouse; conditions: 1 IU/kg ip, within 60 min
Experimental: Consistent with these observations of insulin counterregulation of PKA-mediated Kiss1 stimulation, in vivo ip insulin (1 IU/kg) administration in L-Δprkar1a mice to supplement relatively deficient endogenous serum insulin concentrations and to achieve blood glucose reduction, decreased hepatic Kiss1 mRNA and protein levels within 60 min (FIGS. 8I-8K).

GPR54 [5] = biological target: T2, GPR54 (Mus musculus, UniProt Q91V45); assay: GSIS from WT islets exposed to K10 or diabetic mouse serum with K234; format: cell-based
T2 construct: Mouse brain, mouse islets, insulinoma cells, and human islets express Kiss1R; from tissue; host or cells: isolated mouse pancreatic islets (WT / Kiss1Rfl/fl, C57Bl/6 background)
Source text: (§3) Accordingly, based on the above outlined considerations on β-cell dysfunction and hyperglucagonemia, we reasoned that glucagon receptor-mediated signaling in the liver is required to initiate β-cell dysfunction and to impair glucose-stimulated insulin secretion. We therefore inducibly disinhibited cAMP-PKA signaling in vivo in adult mouse liver by ablating hepatic protein kinase A regulatory subunit 1A (prkar1a) by adenovirus mediated hepatic CRE recombinase transduction in floxed prkar1a mice (L-Δprkar1a mice) 14 (FIG. 22A). Upregulation of hepatic cAMP-PKA signaling within 3 days stimulated hepatic gluconeogenesis causing increase in fasting glucose levels and insufficient insulin secretion to correct glycemia. Conversely, identical baseline fasting glycemia achieved in mice by continuous exogenous glucose infusion for 3 days 15 (D-glucose mice) was associated with increased insulin secretion and relatively mild impairment of glucose tolerance despite continued exogenous glucose infusions (FIG. 22B). Differential hepatic gene expression analysis between these two mouse models identified the gene encoding the secreted neuropeptide kisspeptin-1 (Kiss1) to be markedly elevated (8× on mRNA array, 15× on qRT-PCR) in L-Δprkar1a but not in D-glucose mice (FIG. 22C). […] The kisspeptin receptor Gpr54 expression was detected at significant levels in pancreatic islets (FIG. 26). […]

GPR54 [6] = biological target: T2, GPR54; assay: Glucose tolerance in db/db diabetic mice treated with K234; format: in vivo
Source text: as §3

[7] = intravenous bolus, circulating kisspeptin not measured; cited from earlier work

T2 sequence (Q91V45 whole entry): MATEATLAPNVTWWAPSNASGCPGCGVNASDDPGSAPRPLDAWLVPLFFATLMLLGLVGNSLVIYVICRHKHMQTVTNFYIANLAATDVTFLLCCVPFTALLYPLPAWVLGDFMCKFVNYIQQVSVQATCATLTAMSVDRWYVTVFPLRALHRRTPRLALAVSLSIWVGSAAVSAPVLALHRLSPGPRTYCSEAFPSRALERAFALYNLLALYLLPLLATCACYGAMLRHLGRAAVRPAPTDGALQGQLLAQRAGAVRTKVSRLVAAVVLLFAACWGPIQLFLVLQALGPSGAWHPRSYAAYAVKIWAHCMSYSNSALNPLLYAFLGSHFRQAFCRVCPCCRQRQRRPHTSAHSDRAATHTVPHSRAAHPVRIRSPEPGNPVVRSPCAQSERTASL
T1 sequence (Q61606 27-485): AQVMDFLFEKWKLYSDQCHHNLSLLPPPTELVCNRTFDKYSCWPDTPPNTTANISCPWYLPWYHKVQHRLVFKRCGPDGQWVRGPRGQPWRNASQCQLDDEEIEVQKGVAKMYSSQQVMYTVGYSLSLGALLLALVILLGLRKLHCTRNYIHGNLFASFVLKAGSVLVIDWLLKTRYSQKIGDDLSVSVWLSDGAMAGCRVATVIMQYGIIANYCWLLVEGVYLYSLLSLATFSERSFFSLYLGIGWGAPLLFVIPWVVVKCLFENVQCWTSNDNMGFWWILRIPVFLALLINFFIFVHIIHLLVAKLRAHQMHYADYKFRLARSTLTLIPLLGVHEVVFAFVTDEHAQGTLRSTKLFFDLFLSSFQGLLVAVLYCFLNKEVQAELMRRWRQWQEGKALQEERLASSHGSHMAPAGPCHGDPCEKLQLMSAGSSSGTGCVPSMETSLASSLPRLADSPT

liver Kiss1 transcript and kisspeptin protein in L-ΔInsr mice (Gcgr [2]; compared to Insrfl/fl mice): dramatically increased
hepatic kisspeptin1 production (Gcgr [2]; mice, 16 mg/kg ip, 30 min after injection, versus PBS): increased hepatic kisspeptin1 production
Substance: glucagon
Kiss1 expression (Kiss1 [1]): stimulated
Pck1 expression (Kiss1 [1]): also stimulated
Kiss1 promoter luciferase reporter activity (mouse Kiss1 promoter): transcriptional activation
kisspeptin production in L-ΔGcgr mice (Gcgr [3]): did not change

Substance: insulin
glucagon stimulated Kiss1 and Pck1 expression (Kiss1 [1]; mouse hepatocytes, insulin plus glucagon): dampened
Kiss1 expression (Kiss1 [1]): reduced basal Kiss1 expression
Pck1 expression (Kiss1 [1]): also reduced Pck1 expression
hepatic Kiss1 mRNA and protein levels (Kiss1 [4]): decreased

impaired GSIS of WT islets exposed to diabetic serum (GPR54 [5]; 10% serum from L-Δprkar1a, db/db and ob/ob mice, co-incubation with K234): recovered
effects of K10 on islets (FIG. 27) (GPR54 [5]; WT islets, K10 10 nM): counteracts effects of k10
Substance: K234: GPR54 receptor antagonist, Kisspeptin derivative (SEQ ID NOS:36-37; Roseweir et al. 2009)
glucose tolerance (GPR54 [6]): dramatic improvement in glucose tolerance

Substance: Tyr-Asn-Trp-Asn-Ser-Phe-Gly-Leu-Arg-Phe-NH2 (YNWNSFGLRF-NH2; listed as Homo sapiens) [K10, 10 amino acid C-terminal kisspeptin fragment, GPR54 agonist]
GSIS [7]: stimulate GSIS
